PMC9481533, “Structure-based discovery of small molecules that disaggregate Alzheimer’s disease tissue derived tau fibrils in vitro” (Nature Communications, 2022)
Several values for one entry are separate records, joined by “and”; a condition that tells them apart may be missing. Equal entries are not always repeated. Blank lines part the entries; values can stand above or below the compound they belong to.

Experiments:
MTT cytotoxicity assay = type: cell-based; details: mouse, Neuro2a cells, Neuro2a; final small molecule concentration 10 µM; 24 h; vehicle = 100% viable; individual replicates; read-out: MTT cell viability, compound alone, Fig. 3f
Method: (§1) In all, 90 µL of Neuro2a cells were plated on clear 96 well plates (Falcon 353072) at 6000 cells per well and given 24 h to adhere to the plate. Subsequent treatment consisted of PHF samples that were co-incubated with or without 100 µM of small molecules for 48 h at 37 °C, with 10 µl applied per well for a final small molecule concentration of 10 µM. After another 24-h incubation at 37 °C, 20 µl of Thiazolyl Blue Tetrazolium Bromide MTT dye (Sigma; 5 mg/ml stock in DPBS) was added to each well and further incubated for 3.5 h at 37 °C. The assay was arrested by replacement of all media with 100% DMSO and transferred to a SpectraMax MF reader. Background 700 nm readings were subtracted from the absorbance readings at 570 nm. Cells treated with 100% DMSO were designated as 0% viable and those treated only with vehicle were designated as 100% viable. Other well readings were normalized to these values.

Neuro2a cells = experiment: MTT cytotoxicity assay; type: cell-based; details: for MTT cell viability, compound alone, Fig. 3f: Neuro2a, final small molecule concentration 10 µM, 24 h, vehicle = 100% viable, individual replicates, 10 µM
Method: as §1

[1] = molecular target: crude AD brain extracts (tau seeds) in HEK293T tau biosensor cells (Homo sapiens, UniProt P10636); experiment: Tau biosensor cell seeding assay, screen with crude AD brain extracts; type: cell-based; details: 10 μM inhibitor on cells, seeds pre-incubated 16–18 h at 4 °C, individual replicates (n=3), DMSO control 10734.9/12808.5/11145.3
Text: From the in silico screen, compounds were ranked and 46 were selected for further experimental validation based on the total binding energy of the ligand/fibril complex. The experimental assessment consisted of direct measures of fibril disassembly (Fig. 2d, e and Supplementary Table 3) and assessment of the seeding capability of the products of disassembled AD tau fibrils in a biosensor cell assay. Disaggregating molecules that produce active seeds are undesirable for therapy and are excluded from further study. HEK293T cells expressing CFP- or YFP-fused tau are transduced with exogenous AD tau fibrils. Externally applied AD-tau fibrils then induce the aggregation of the endogenous fluorescent tau, resulting in the formation of FRET-positive intracellular aggregates, visible as bright puncta by fluorescence microscopy (Fig. 2f). Automated image analysis of visible puncta provides an objective quantification of seeded aggregation. […] Although biosensors may be limited in reporting structural characteristics of fibril progeny, they offer exquisitely sensitive measures of tau seeding activity—the ability for fibrils to recruit monomeric protein into fibrillar form, which is thought to be the mechanism for tau spreading in AD.
(§2) Human autopsy samples were obtained by the Mayo Clinic Brain Bank and UCLA Pathology Department according to HHS regulations from patients consenting to autopsy. Samples were provided to the researchers of this study as anonymized tissues. For purification of paired helical filaments (PHFs) and straight filaments (SFs) from AD brain tissue, extractions were performed according to the previously published protocol without any modifications. […] For biosensor seeding assays with crude AD brain extracts, fresh-frozen tissue from neuropathologically confirmed AD cases was thawed and cut into a 0.2–0.3 g sections. Tissue was manually homogenized in a 15 ml disposable tube in 1 ml of 50 mM Tris, pH 7.4 with 150 mM NaCl, and then aliquoted to PCR tubes and sonicated in a cuphorn bath for 120 min under 30% power at 4 °C in a recirculating ice water bath, according to reference.
(§3) HEK293T cell lines stably expressing tau-K18 P301S-eYFP were obtained from Marc Diamond[25] and used without further characterization or authentication. […] Inhibitors were dissolved in DMSO. […] After twenty minutes, 10 µl of fibrils were added to 90 µl of tau biosensor cells. The number of seeded aggregates was determined by imaging the entire well of a 96-well plate in triplicate using a Celigo Image Cytometer (Nexcelom) in the YFP channel. The number of aggregates in a given image was determined using an ImageJ 2.3.0[50] script, which subtracts the background fluorescence from unseeded cells, and then counts the number of aggregates as peaks with fluorescence above the background using the built-in Particle Analyzer. The number of aggregates was normalized to the confluence of each well, and dose-response plots were generated by calculating the average and standard deviations from triplicate measurements.

[2] = molecular target: brain-purified AD-tau fibrils in HEK293T tau biosensor cells (Homo sapiens, UniProt P10636); experiment: Tau biosensor cell seeding assay, dose-dependent inhibition with brain-purified AD-tau fibrils; type: cell-based; details: for Number of seeded aggregates, Supp. Fig. 7: individual replicates
Method: as §2, §3

[3] = molecular target: T1, AD brain-derived tau fibrils (Homo sapiens, UniProt P10636); experiment: Negative stain EM and quantitative EM (qEM) of tau fibrils after compound treatment; type: biochemical
Method: Negatively stained EM Grids were prepared by depositing 6 µl of sample on formvar/carbon-coated copper grids (400 mesh) for 3 min. The sample was rapidly wicked using filter paper without drying the grid and stained with 1% uranyl acetate for 2 min. […] Fibrils were counted from collections of 33 micrographs (in triplicate) for each experimental condition.

[4] = molecular target: T1, AD brain-derived tau fibrils; experiment: Western blot of insoluble tau after compound treatment; type: biochemical; details: 72 h at 37 °C
Method: Proteins were transferred from gel to nitrocellulose membrane using an iBLOT2 system. The membrane was blocked for 1 h in TBST with 5% milk and washed with TBST three times. The membrane was then incubated with primary antibody (anti-tau A0024 (Dako), 1:4000 dilution in 2% milk/TBST solution) for 1 h, washed three times with TBST, incubated with horseradish peroxidase-conjugated secondary antibody (goat anti-mouse IgG H and L (HRP); 1:5000 Dilution in 2% milk/TBST), and washed three times in TBST.

[5] = inhibitor concentration 10 (µM)
[6] = inhibitor concentration 40 (µM)

Chain of crude AD brain extracts (tau seeds) in HEK293T tau biosensor cells (P10636 623-695 limits assumed): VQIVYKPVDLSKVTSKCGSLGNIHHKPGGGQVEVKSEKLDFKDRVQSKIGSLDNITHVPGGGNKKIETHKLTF
Chain of brain-purified AD-tau fibrils in HEK293T tau biosensor cells (P10636 623-695 limits assumed): as above
T1 sequence (P10636 623-695 limits assumed): as above

SMILES: O=C1c2ccccc2C(=O)N1c1nc2nccc(-c3ccccc3)n2n1 [CNS-2, 2-(7-phenyl[1,2,4]triazolo[1,5-a]pyrimidin-2-yl)-1H-isoindole-1,3(2H)-dione]
- viability at 24 h, 10 µM (MTT cytotoxicity assay): 97.5%
- MTT cell viability, compound alone, Fig. 3f (Neuro2a cells): 89.5134% and 84.5916%

SMILES: Cc1cc(C)c(NC(=O)Cn2nc3c4c(cccc4c2=O)-c2ccccc2-3)c(C)c1 [CNS-11, N-mesityl-2-(3-oxoindeno[1,2,3-de]phthalazin-2(3H)-yl)acetamide]
- viability at 24 h, 10 µM (MTT cytotoxicity assay): 60.2%
- Neuronal cytotoxicity of compound (Neuro2a cells; Neuro 2a (N2a) cells, MTT): significant cytotoxicity
- MTT cell viability, compound alone, Fig. 3f (Neuro2a cells): 62.1272% and 57.0691%

SMILES: Cc1cc(C)cc(N2C(=O)N(c3cccc(Cl)c3)C3CS(=O)(=O)CC32)c1 (stereo not drawn) [CNS-12, 1-(3-chlorophenyl)-3-(3,5-dimethylphenyl)tetrahydro-1H-thieno[3,4-d]imidazol-2(3H)-one 5,5-dioxide]
- MTT cell viability, compound alone, Fig. 3f (Neuro2a cells): 107.797% and 97.7194% and 77.9839%

- Number of seeded aggregates in tau biosensor cells (normalized to confluence), Fig. 2e ([1]; listed as 6870810): 4788.26 and 4837.93 and 6713.19
- IC50 ([2]; brain-purified AD-tau fibrils, read-out: IC50, inhibition of seeding efficiency in biosensor cells): < 5 µM
- Number of seeded aggregates, Supp. Fig. 7 ([2]; inhibitor concentration 1 (µM)): 12634.1 and 17143.6 and 11095.2
- Number of seeded aggregates, Supp. Fig. 7 ([2]; inhibitor concentration 2 (µM)): 9200.81 and 9676.73 and 6081.22
- Number of seeded aggregates, Supp. Fig. 7 ([2]; inhibitor concentration 5 (µM)): 9500.56 and 10385 and 5182.56
- Number of seeded aggregates, Supp. Fig. 7 [2, 5]: 11886 and 11650.5 and 6860.55
- Number of seeded aggregates, Supp. Fig. 7 [2, 6]: 3439.45 and 1968.58 and 2178.79
- Quantitation of fibril number on EM images (qEM), Fig. 3c ([3]; relative scale, fibrils alone about 1, individual replicates of 33 micrographs): 0.7296 and 1.4265 and 0.6447
- Reduction of insoluble tau by Western blot [4]: reduction in insoluble tau species
SMILES: O=C(Nc1cccc(C(F)(F)F)c1)N1c2ccccc2Sc2ccccc21 [CNS-17, N-[3-(trifluoromethyl)phenyl]-10H-phenothiazine-10-carboxamide]
- Fibril reduction by qEM [3]: a corresponding reduction in fibril density was not seen by qEM
- viability at 24 h, 10 µM (MTT cytotoxicity assay): 74.1%
- MTT cell viability, compound alone, Fig. 3f (Neuro2a cells): 66.6981% and 63.9984%

- Number of seeded aggregates in tau biosensor cells (normalized to confluence), Fig. 2e ([1]; listed as lomitapide): 1844.31 and 2433.57 and 2611.16
- Number of seeded aggregates, Supp. Fig. 7 ([2]; inhibitor concentration 1 (µM)): 9648.53 and 7383.58 and 7455.51
- Number of seeded aggregates, Supp. Fig. 7 ([2]; inhibitor concentration 2 (µM)): 5514.78 and 9418.9 and 7841.07
- Number of seeded aggregates, Supp. Fig. 7 ([2]; inhibitor concentration 5 (µM)): 11341.6 and 15697.2 and 9575.47
- Number of seeded aggregates, Supp. Fig. 7 [2, 5]: 4892.73 and 7401.62 and 3914.28
- Number of seeded aggregates, Supp. Fig. 7 [2, 6]: 2.016 and 15.6712 and 4.096
SMILES: O=C(NC1CCN(CCCCC2(C(=O)NCC(F)(F)F)c3ccccc3-c3ccccc32)CC1)c1ccccc1-c1ccc(C(F)(F)F)cc1 [FDA-A2, Lomitipide]

- Number of seeded aggregates in tau biosensor cells (normalized to confluence), Fig. 2e [1]: 7414.6 and 8137.54 and 11548.1
SMILES: CC1=C(C/C=C(\C)CCC[C@H](C)CCC[C@H](C)CCCC(C)C)C(=O)c2ccccc2C1=O [FDA-R-9, Phytonadione]

- Number of seeded aggregates in tau biosensor cells (normalized to confluence), Fig. 2e ([1]; listed as Isoetharine mesylate): 7986.42 and 10421.3 and 17350.6
SMILES: CCC(NC(C)C)C(O)c1ccc(O)c(O)c1 (stereo not drawn) [FDA-R-14, Isoetharine]

- Number of seeded aggregates in tau biosensor cells (normalized to confluence), Fig. 2e ([1]; listed as Prolixin decanoate aka fluphenazine): 15859.2 and 19243.3 and 27665.8
SMILES: CCCCCCCCCC(=O)OCCN1CCN(CCCN2c3ccccc3Sc3ccc(C(F)(F)F)cc32)CC1 [FDA-R-15, Prolixin decanoate]

SMILES: O=[N+]([O-])O[C@@H]1CO[C@H]2[C@@H]1OC[C@@H]2O [FDA-R-17, Isosorbide Mononitrate]
- Number of seeded aggregates in tau biosensor cells (normalized to confluence), Fig. 2e ([1]; listed as isosorbide mononitrate mw): 7858.85 and 13647.5 and 18697.1

- Number of seeded aggregates in tau biosensor cells (normalized to confluence), Fig. 2e [1]: 5152.95 and 6033.26 and 10826.5
SMILES: CC(C)OC(=O)CCC/C=C\C[C@@H]1[C@@H](/C=C/[C@@H](O)COc2cccc(C(F)(F)F)c2)[C@H](O)C[C@@H]1O [FDA-R-18, Travoprost]

- Number of seeded aggregates in tau biosensor cells (normalized to confluence), Fig. 2e [1]: 9211.55 and 6199.61 and 13007.3
SMILES: C[C@@H]1C/C=C/C=C/C=C/C=C/[C@H](O[C@@H]2O[C@H](C)[C@@H](O)[C@H](N)[C@@H]2O)C[C@@H]2O[C@](O)(C[C@@H](O)C[C@H]3O[C@@H]3/C=C/C(=O)O1)C[C@H](O)[C@H]2C(=O)O [FDA-R-19, Natamycin]

- Number of seeded aggregates in tau biosensor cells (normalized to confluence), Fig. 2e ([1]; listed as cromolyn sodium): 8238.89 and 9556.51 and 14800.8
SMILES: O=C(O)c1cc(=O)c2c(OCC(O)COc3cccc4oc(C(=O)O)cc(=O)c34)cccc2o1 [FDA-R-23, Sodium chromoglycate]

- Number of seeded aggregates in tau biosensor cells (normalized to confluence), Fig. 2e [1]: 13643.9
SMILES: CN(C)CCCN1c2ccccc2CCc2ccccc21 [FDA-R-24, Imipramine]

- Number of seeded aggregates in tau biosensor cells (normalized to confluence), Fig. 2e [1]: 5170.49 and 6311.14 and 10607
SMILES: CN(C)S(=O)(=O)c1ccc2c(c1)/C(=C/c1cc3c([nH]1)CCCC3)C(=O)N2 [su6656]
